According to US7713548B2, “Amorphous solid dispersions” (sanofi-aventis U.S. LLC, priority 2005, dated 2010):

Legend:
[1] = molecular target: peripheral-type benzodiazepine receptors (Homo sapiens, UniProt P30536); details: described in U.S. Pat. No. 6,262,045 and 6,395,729; cited from earlier work
[2] = Physical stability of amorphous pure drug substance; format: physicochemical; details: amorphous forms of the pure drug substance; crystallized over time
[3] = test system: animal models of rheumatoid arthritis; experiment: Animal models of rheumatoid arthritis; format: in vivo; details: by modulating the immune response

peripheral-type benzodiazepine receptors, sequence (P30536 whole entry): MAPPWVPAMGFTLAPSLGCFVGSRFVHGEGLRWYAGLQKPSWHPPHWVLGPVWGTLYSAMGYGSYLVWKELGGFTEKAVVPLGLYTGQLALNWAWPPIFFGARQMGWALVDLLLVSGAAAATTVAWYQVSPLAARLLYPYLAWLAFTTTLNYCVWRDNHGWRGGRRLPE

## CN(C)C(=O)Cc1nn(-c2ccccc2)c(=O)c2c1c1ccc(Cl)cc1n2C [7-chloro-N,N,5-trimethyl-4-oxo-3-phenyl-3,5-dihydro-4H-pyridazino[4,5-b]indole-1-acetamide]
[1]
  affinity for the peripheral-type benzodiazepine receptors: high affinity
[2]
  physical stability: limited physical stability
[3]
  pharmacological activity in animal models of rheumatoid arthritis: has shown pharmacological activity
